Experimental data as given in the supplement of paper PMC11061612.

Tests used:
Experiment in all cases: Bliss excess, mean over the matrix (fraction); higher = more synergy
[1] = test system: A4-Fuk (B-Lymphoblastic Leukemia)
Procedure, shortened: (§1)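 After 24 hours at 37°C and 5% CO2 in 1536-well plates, cells in DMEM/F12 or RPMI plus 10% FBS received two-drug dose matrices for 72 hours. Viability came from CellTiter-Glo 2.0 luminescence and was scaled as inhibition, anchored at 0 by vehicle wells and at 1 by blank wells. Combination Emax is taken as the second-highest inhibition in the matrix, and Bliss excess as the observed combination effect less EA + EB − EA·EB, with EA and EB the single-agent effects.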

[2] = test system: COLO-668 (Small Cell Lung Carcinoma)
Procedure, shortened: as §1

[3] = test system: COLO-679 (Melanoma)
Procedure, shortened: as §1

[4] = test system: Ca-Ski (Cervical Carcinoma)
Procedure, shortened: as §1

[5] = test system: DU-145 (Prostate Carcinoma)
Procedure, shortened: as §1

[6] = test system: HAL-01 (B-Lymphoblastic Leukemia)
Procedure, shortened: as §1

[7] = test system: KGN (Other Solid Carcinomas)
Procedure, shortened: as §1

[8] = test system: KMRC-1 (Kidney Carcinoma)
Procedure, shortened: as §1

[9] = test system: MDA-MB-453 (Breast Carcinoma)
Procedure, shortened: as §1

[10] = test system: ME-180 (Cervical Carcinoma)
Procedure, shortened: as §1

[11] = test system: ML-2 (Acute Myeloid Leukemia)
Procedure, shortened: as §1

[12] = test system: MOG-G-UVW (Low Grade Glioma)
Procedure, shortened: as §1

[13] = test system: MOLT-4 (T-Lymphoblastic Leukemia)
Procedure, shortened: as §1

[14] = test system: MV-4-11 (Acute Myeloid Leukemia)
Procedure, shortened: as §1

[15] = test system: NCI-H522 (Lung Adenocarcinoma)
Procedure, shortened: as §1

[16] = test system: OE33 (Esophageal Adenocarcinoma)
Procedure, shortened: as §1

[17] = test system: SK-N-AS (Neuroblastoma)
Procedure, shortened: as §1

[18] = test system: SKN (Other Solid Carcinomas)
Procedure, shortened: as §1

[19] = test system: SNU-387 (Hepatocellular Carcinoma)
Procedure, shortened: as §1

[20] = test system: SW982 (Other Solid Carcinomas)
Procedure, shortened: as §1

COc1cc2c(cc1OCCCCCOc1cc3c(cc1OC)C(=O)N1C=C(C)C[C@H]1C=N3)N=C[C@@H]1CC(C)=CN1C2=O [SG3199] + O=C(c1cc(Cc2n[nH]c(=O)c3ccccc23)ccc1F)N1CCN(C(=O)C2CC2)CC1 [Olaparib] (first compound max 0.001 µM, 7x7, partner max 10 µM)
Bliss excess [1]: -0.0267 | Bliss excess [2]: -0.0003 | Bliss excess [3]: -0.0285 | Bliss excess [4]: -0.0425 | Bliss excess [5]: -0.0361 | Bliss excess [6]: 0.0067 | Bliss excess [7]: -0.04 | Bliss excess [8]: -0.0251 | Bliss excess [9]: -0.0226 | Bliss excess [10]: -0.0495 | Bliss excess [11]: 0.0179 | Bliss excess [12]: -0.0081 | Bliss excess [13]: 0.0061 | Bliss excess [14]: 0.0066 | Bliss excess [15]: -0.0245 | Bliss excess [16]: -0.0276 | Bliss excess [17]: -0.0176 | Bliss excess [18]: -0.0373 | Bliss excess [19]: -0.0533 | Bliss excess [20]: -0.0195

Cc1cc2ncnn2cc1Nc1ncc2c(n1)n(C1CCOCC1)c(=O)n2C [AZD7648] + O=C(c1cc(Cc2n[nH]c(=O)c3ccccc23)ccc1F)N1CCN(C(=O)C2CC2)CC1 [Olaparib] (first compound max 10 µM, 7x7, partner max 10 µM)
Bliss excess [1]: -0.038 | Bliss excess [2]: -0.0105 | Bliss excess [3]: -0.039 | Bliss excess [4]: -0.0467 | Bliss excess [5]: -0.026 | Bliss excess [6]: 0.0522 | Bliss excess [7]: -0.0384 | Bliss excess [8]: -0.015 | Bliss excess [9]: -0.0144 | Bliss excess [10]: -0.0432 | Bliss excess [11]: -0.0218 | Bliss excess [12]: -0.0052 | Bliss excess [13]: -0.0277 | Bliss excess [14]: -0.0389 | Bliss excess [15]: -0.0308 | Bliss excess [16]: -0.0359 | Bliss excess [17]: -0.0337 | Bliss excess [18]: -0.0448 | Bliss excess [19]: -0.0303 | Bliss excess [20]: 0.0002

CN(CCO)CC[C@H](CSc1ccccc1)Nc1ccc(S(=O)(=O)NC(=O)c2ccc(N3CCC([C@@H](O)c4ccccc4-c4ccc(Cl)cc4)CC3)cc2)cc1S(=O)(=O)C(F)(F)F [AZD4320] + C1CN(CCC1(C(=O)N[C@@H](CCO)C2=CC=C(C=C2)Cl)N)C3=NC=NC4=C3C=CN4 [Capivasertib] (first compound max 1 µM, 7x7, partner max 3 µM)
Bliss excess [1]: -0.0013 | Bliss excess [2]: 0.034 | Bliss excess [3]: -0.0431 | Bliss excess [4]: 0.0249 | Bliss excess [5]: -0.0342 | Bliss excess [6]: 0.0022 | Bliss excess [7]: -0.0839 | Bliss excess [8]: 0.0094 | Bliss excess [9]: -0.0534 | Bliss excess [10]: -0.0238 | Bliss excess [11]: -0.0659 | Bliss excess [12]: -0.0318 | Bliss excess [13]: 0.0173 | Bliss excess [14]: 0.0185 | Bliss excess [15]: -0.034 | Bliss excess [16]: -0.0575 | Bliss excess [17]: -0.0397 | Bliss excess [18]: -0.0279 | Bliss excess [19]: -0.0399 | Bliss excess [20]: -0.0426

CN(CCO)CC[C@H](CSc1ccccc1)Nc1ccc(S(=O)(=O)NC(=O)c2ccc(N3CCC([C@@H](O)c4ccccc4-c4ccc(Cl)cc4)CC3)cc2)cc1S(=O)(=O)C(F)(F)F [AZD4320] + CC(=O)O[C@H]1C(=O)[C@@]2(C)[C@H]([C@H](OC(=O)c3ccccc3)[C@]3(O)C[C@H](OC(=O)[C@H](O)[C@@H](NC(=O)c4ccccc4)c4ccccc4)C(C)=C1C3(C)C)[C@]1(OC(C)=O)CO[C@@H]1C[C@@H]2O [Paclitaxel] (first compound max 1 µM, 7x7, partner max 3 µM)
Bliss excess [1]: -0.0556 | Bliss excess [2]: 0.125 | Bliss excess [3]: -0.0012 | Bliss excess [4]: 0.114 | Bliss excess [5]: 0.0406 | Bliss excess [6]: 0.0634 | Bliss excess [7]: 0.0039 | Bliss excess [8]: 0.0095 | Bliss excess [9]: 0.249 | Bliss excess [10]: 0.139 | Bliss excess [11]: -0.0009 | Bliss excess [12]: -0.0104 | Bliss excess [13]: 0.0099 | Bliss excess [14]: 0.0055 | Bliss excess [15]: 0.0246 | Bliss excess [16]: 0.0836 | Bliss excess [17]: 0.0584 | Bliss excess [18]: 0.13 | Bliss excess [19]: 0.0767 | Bliss excess [20]: 0.0272

Cc1cc2ncnn2cc1Nc1ncc2c(n1)n(C1CCOCC1)c(=O)n2C [AZD7648] + COc1cc([C@@H]2c3cc4c(cc3[C@@H](O[C@@H]3O[C@@H]5CO[C@@H](C)O[C@H]5[C@H](O)[C@H]3O)[C@H]3COC(=O)[C@H]23)OCO4)cc(OC)c1O [Etoposide] (first compound max 10 µM, 7x7, partner max 10 µM)
Bliss excess [1]: -0.0187 | Bliss excess [2]: 0.0429 | Bliss excess [3]: -0.0745 | Bliss excess [4]: 0.103 | Bliss excess [5]: 0.0001 | Bliss excess [6]: 0.0962 | Bliss excess [7]: 0.114 | Bliss excess [8]: 0.0859 | Bliss excess [9]: -0.0136 | Bliss excess [10]: 0.12 | Bliss excess [11]: 0.125 | Bliss excess [12]: 0.164 | Bliss excess [13]: 0.167 | Bliss excess [14]: 0.115 | Bliss excess [15]: 0.0178 | Bliss excess [16]: 0.0247 | Bliss excess [17]: 0.0684 | Bliss excess [18]: 0.0503 | Bliss excess [19]: -0.0126 | Bliss excess [20]: 0.142

Cc1nc(Nc2ncc(C(=O)Nc3c(C)cccc3Cl)s2)cc(N2CCN(CCO)CC2)n1 [Dasatinib] + CC(=O)Nc1cccc(-n2c(=O)n(C3CC3)c(=O)c3c(Nc4ccc(I)cc4F)n(C)c(=O)c(C)c32)c1 [Trametinib] (first compound max 2 µM, 7x7, partner max 1 µM)
Bliss excess [1]: -0.0013 | Bliss excess [2]: -0.0121 | Bliss excess [3]: -0.137 | Bliss excess [4]: 0.0639 | Bliss excess [5]: -0.0081 | Bliss excess [6]: 0.0436 | Bliss excess [7]: -0.0643 | Bliss excess [8]: -0.0009 | Bliss excess [9]: -0.035 | Bliss excess [10]: 0.0171 | Bliss excess [11]: -0.122 | Bliss excess [12]: -0.028 | Bliss excess [13]: 0.0717 | Bliss excess [14]: -0.128 | Bliss excess [15]: -0.0082 | Bliss excess [16]: -0.0082 | Bliss excess [17]: 0.0361 | Bliss excess [18]: -0.0618 | Bliss excess [19]: 0.0213 | Bliss excess [20]: -0.0319

COc1cc2ncnc(Nc3ccc(F)c(Cl)c3)c2cc1OCCCN1CCOCC1 [Gefitinib] + CC(C)n1c(=O)n(C)c2cnc3cc(F)c(-c4ccc(OCCCN5CCCCC5)nc4)cc3c21 [AZD1390] (first compound max 10 µM, 7x7, partner max 0.3 µM)
Bliss excess [1]: -0.0704 | Bliss excess [2]: -0.0333 | Bliss excess [3]: -0.0901 | Bliss excess [4]: -0.0785 | Bliss excess [5]: -0.06 | Bliss excess [6]: 0 | Bliss excess [7]: -0.0632 | Bliss excess [8]: -0.0702 | Bliss excess [9]: -0.0171 | Bliss excess [10]: -0.0413 | Bliss excess [11]: -0.0237 | Bliss excess [12]: -0.0401 | Bliss excess [13]: 0.009 | Bliss excess [14]: -0.0534 | Bliss excess [15]: -0.0551 | Bliss excess [16]: -0.0434 | Bliss excess [17]: -0.0588 | Bliss excess [18]: -0.0548 | Bliss excess [19]: -0.0714 | Bliss excess [20]: -0.0861

C[C@@H](c1ccc2nccn2c1)n1nnc2ncc(-c3cnn(C)c3)nc21 [Savolitinib] + CC1(C)CCC(CN2CCN(c3ccc(C(=O)NS(=O)(=O)c4ccc(NCC5CCOCC5)c([N+](=O)[O-])c4)c(Oc4cnc5[nH]ccc5c4)c3)CC2)=C(c2ccc(Cl)cc2)C1 [Venetoclax] (first compound max 1 µM, 7x7, partner max 1 µM)
Bliss excess [1]: -0.0269 | Bliss excess [2]: -0.0624 | Bliss excess [3]: -0.0676 | Bliss excess [4]: -0.0475 | Bliss excess [5]: -0.0339 | Bliss excess [6]: -0.0387 | Bliss excess [7]: -0.0249 | Bliss excess [8]: -0.0899 | Bliss excess [9]: -0.0173 | Bliss excess [10]: -0.084 | Bliss excess [11]: 0.0096 | Bliss excess [12]: 0.0069 | Bliss excess [13]: 0.0879 | Bliss excess [14]: 0.0246 | Bliss excess [15]: -0.0504 | Bliss excess [16]: 0.001 | Bliss excess [17]: -0.0568 | Bliss excess [18]: -0.0442 | Bliss excess [19]: -0.106 | Bliss excess [20]: -0.046

CN(CCO)CC[C@H](CSc1ccccc1)Nc1ccc(S(=O)(=O)NC(=O)c2ccc(N3CCC([C@@H](O)c4ccccc4-c4ccc(Cl)cc4)CC3)cc2)cc1S(=O)(=O)C(F)(F)F [AZD4320] + C[C@@H]1COCCN1C2=NC(=NC(=C2)C3(CC3)[S@](=N)(=O)C)C4=C5C=CNC5=NC=C4 [AZD6738] (first compound max 1 µM, 7x7, partner max 10 µM)
Bliss excess [1]: -0.0169 | Bliss excess [2]: 0.0325 | Bliss excess [3]: -0.0266 | Bliss excess [4]: -0.006 | Bliss excess [5]: -0.0335 | Bliss excess [6]: 0.0405 | Bliss excess [7]: -0.0198 | Bliss excess [8]: -0.0358 | Bliss excess [9]: -0.0453 | Bliss excess [10]: 0.0005 | Bliss excess [11]: 0.0597 | Bliss excess [12]: -0.0396 | Bliss excess [13]: -0.0084 | Bliss excess [14]: -0.0066 | Bliss excess [15]: -0.0555 | Bliss excess [16]: -0.0295 | Bliss excess [17]: -0.0421 | Bliss excess [18]: -0.0394 | Bliss excess [19]: -0.0443 | Bliss excess [20]: -0.0374

N#Cc1cnc(Nc2cc(NC[C@H]3CNCCO3)c(C(F)(F)F)cn2)cn1 [SRA737] + CCc1c2c(nc3ccc(O)cc13)-c1cc3c(c(=O)n1C2)COC(=O)[C@]3(O)CC [SN-38] (first compound max 10 µM, 7x7, partner max 0.3 µM)
Bliss excess [1]: -0.0229 | Bliss excess [2]: -0.0688 | Bliss excess [3]: -0.13 | Bliss excess [4]: 0.0291 | Bliss excess [5]: -0.0338 | Bliss excess [6]: -0.0125 | Bliss excess [7]: -0.0554 | Bliss excess [8]: -0.0193 | Bliss excess [9]: -0.0401 | Bliss excess [10]: 0.0247 | Bliss excess [11]: -0.0549 | Bliss excess [12]: 0.0034 | Bliss excess [13]: 0.002 | Bliss excess [14]: -0.0337 | Bliss excess [15]: 0.0337 | Bliss excess [16]: -0.0371 | Bliss excess [17]: 0.0144 | Bliss excess [18]: 0.0673 | Bliss excess [19]: 0.0321 | Bliss excess [20]: -0.0929
